# Assays:
# [1] = Solubility in oils for SEDDS/SMEDDS; assay type: physicochemical; conditions: oil or lipid; neutral oil
# Description: Due to the relatively high doses necessary for therapeutic effect (approximately 500 mg) and a maximal dose in a self-emulsifying capsule formulation (SEDDS or SMEDDS) of not more than 5 mg, the patient would have to take 100 capsules to achieve the target dose.
# [2] = Young's modulus by ultrasound-assisted instrumented single punch press; assay type: physicochemical; conditions: neat substance, in dependence of solid fraction; FIG. 3 and FIG. 4
# Description: Young's modulus is assessed as an indicator for material stiffness (the higher Young's modulus, the more rigid a substance is) whereby its measurement is done in dependence of the solid fraction, which is complementary to porosity (i.e. solid fraction=1−porosity fraction). With this, a solid fraction of 1 indicates no porosity, i.e. no air entrapped in the solid phase. Pharmaceutical relevant solid fractions usually range from 0.75 to 0.85. Porosities have been determined by nitrogen pycnometry.
# The measurements to determine the Young's modulus are conducted on a commercially available instrumented single punch press (Romaco Kilian StylOne system) with ultrasound-assisted measurement punches. For this purpose, neat substances are compacted between the upper and the lower punch, leading to densification of the material. The ultrasound velocity in the sample in dependence of the degree of densification is recorded and used for calculation of Youngs modulus of the specific substance.
# [3] = Solubility in biorelevant media (FaSSIF, FeSSIF)
# Description: Despite such low solubility rather high doses of far above 100 mg are needed for its use in the therapy. […] Accordingly, a pharmaceutical preparation for oral administration must have a high bioavailability to provide the high doses that are needed to achieve the desired therapeutic effect. Otherwise the pharmaceutical preparation would need to have an increased size not usable for its oral administration due to problems with its swallowability.
smiles,measurement,setting,value
"CN1CCC(COc2cnc(-c3cccc(Cn4nc(-c5cccc(C#N)c5)ccc4=O)c3)nc2)CC1 [3-(1-{3-[5-(1-Methyl-piperidin-4-ylmethoxy)-pyrimidin-2-yl]-benzyl}-6-oxo-1,6-dihydro-pyridazin-3-yl)-benzonitrile]",solubility,[1],< 5000 µg/mL
same,Young's modulus (elastic properties),[2],distinct lower Young's moduli compared to widely used pharmaceutical fillers
same,BCS classification,"[3]; Amidon et al., 1995",BCS IV
same,solubility,[3]; fassif,43 µg/mL

# — patent publication US20220288068A1, “PHARMACEUTICAL PREPARATION” (MERCK PATENT GMBH, priority 2019, published 2022)
